Values after ≈ are worked out from the molar mass of the structure shown. Values joined by “and” are separate entries in the source; they are usually repeats but may differ in a detail not shown here. Identical values can stand only once.
Experiment: Solubility of the compound in organic solvents and eluents
Format: physicochemical
Settings: for Solubility (mg/mL) at 25°C / Solubility: 25°C
[1] = eluent hexane and dichloromethane at 6:4 (volume ratio)

Row | Solubility (mg/mL) at 25°C (Dichloromethane) [mg/mL] | Solubility (mg/mL) at 25°C (Ethyl acetate) [mg/mL] | Solubility (mg/mL) at 25°C (Toluene) [mg/mL] | solubility in the used eluent [1] [µg/mL] | Solubility (Example 4 eluent Hexane/ethyl acetate (volume ratio: 8:1)) [µg/mL] | Solubility (Example 5 eluent Hexane/toluene (volume ratio: 2:1)) [µg/mL] | Solubility (Example 6 eluent Hexane/THF (volume ratio: 8:1)) [µg/mL] | Solubility (Example 7 eluent Hexane/acetone (volume ratio: 8:1)) [µg/mL] | solubility in the used eluent (eluent hexane and ethyl acetate at 8:1 (volume ratio)) | solubility in the used eluent (eluent hexane and toluene at 3:2 (volume ratio)) [µg/mL] | Compound
1 | 30 (≈ 59.8 mM) | 4 (≈ 7.97 mM) | 10 (≈ 19.9 mM) | 3000 | – | – | – | – | – | – | c1ccc(N(c2ccccc2)c2ccc3[nH]c4ccc(N(c5ccccc5)c5ccccc5)cc4c3c2)cc1 [DACT-II precursor, N,N,N',N'-tetraphenyl-9H-carbazole-3,6-diamine]
2 | 100 (≈ 124 mM) | 6 (≈ 7.42 mM) | 30 (≈ 37.1 mM) | 3000 | <1100 | <5900 | <2100 | <300 | 1000 µg/mL and 1100 µg/mL | 5000 | c1ccc(-c2nc(-c3ccccc3)nc(-c3ccc(-n4c5ccc(N(c6ccccc6)c6ccccc6)cc5c5cc(N(c6ccccc6)c6ccccc6)ccc54)cc3)n2)cc1 [DACT-II, 9-[4-(4,6-diphenyl-1,3,5-triazin-2-yl)phenyl]-N,N,N',N'-tetraphenyl-9H-carbazole-3,6-diamine]

From EP4741818A1, “COMPOUND TREATMENT METHOD, METHOD FOR PRODUCING COMPOUND OR REACTION PRODUCT OF SAME, SYSTEM FOR TREATING COMPOUND, AND REPLACEMENT TREATMENT COLUMN” (Flugelz Co., Ltd., priority 2023, dated 2025)
